Reference: ChEMBL document CHEMBL1149460, “Pharmacokinetics and metabolism studies on (3-tert-butyl-7-(5-methylisoxazol-3-yl)-2-(1-methyl-1H-1,2,4-triazol-5-ylmethoxy) pyrazolo[1,5-d][1,2,4]triazine, a functionally selective GABA(A) alpha5 inverse agonist for cognitive dysfunction” (Bioorg Med Chem Lett, 2006)

Legend:
[1] = Efficacy against human GABA alpha-2 receptor expressed in mouse fibroblast L(tk-) cells by whole cell patch clamp method; format: functional
[2] = Efficacy against human GABA alpha-3 receptor expressed in mouse fibroblast L(tk-) cells by whole cell patch clamp method; format: functional
[3] = Efficacy against human GABA alpha-5 receptor expressed in mouse fibroblast L(tk-) cells by whole cell patch clamp method; format: functional
[4] = target: GABA A receptor alpha-1/beta-1/gamma-2 (Homo sapiens) (UniProt P14867+P18507+P18505); assay: Efficacy against human GABA alpha-1 receptor expressed in mouse fibroblast L(tk-) cells by whole cell patch clamp method; format: functional, cell-based
[5] = Binding affinity to GABA alpha5 receptor; set-up: species or system Homo sapiens
[6] = target: GABA-A receptor; anion channel (Rattus norvegicus) (UniProt O09028+P15431+P18506+P18508+P19969+P20236+P23574+P23576+P28471+P28473+P30191+P62813+P63079+P63138+Q91ZM7+Q9ES14); assay: Receptor occupancy in vivo by displacement of [3H]Ro 15-1788 binding from rat brain GABAA receptor at 3 mg/kg, ip; format: functional, organism-based; set-up: dose 3 mg/kg
[7] = Half life in dog; format: ADME, organism-based, Canis lupus familiaris; conditions: in vivo
[8] = Clearance in rat; format: ADME, organism-based; conditions: in vivo
[9] = Half life in rat; format: ADME, organism-based; conditions: in vivo
[10] = Clearance in dog; format: ADME, organism-based, Canis lupus familiaris; conditions: in vivo
[11] = Oral bioavailability in rhesus; format: ADME, organism-based, Macaca mulatta; conditions: rhesus monkey, in vivo
[12] = Half life in rhesus; format: ADME, organism-based, Macaca mulatta; conditions: rhesus monkey, in vivo
[13] = Clearance in rhesus; format: ADME, organism-based, Macaca mulatta; conditions: rhesus monkey, in vivo

Row | Structure (SMILES) | Efficacy [1] [%] | Efficacy [2] [%] | Efficacy [3] [%] | Efficacy [4] [%] | Ki [5] [nM] | Activity [6] [%] | half-life [7] [min] | clearance [8] [mL/min/kg] | half-life [9] [min] | clearance [10] [mL/min/kg] | bioavailability [11] [%] | half-life [12] [min] | clearance [13] [mL/min/kg]
1 | Cc1cc(-c2nnc(O)c3c(C(C)(C)C)c(OCc4ncnn4C)nn23)no1 | 0 | -8 | -47 | 1 | 700 |  |  |  |  |  |  |  | 
2 | Cn1ncnc1COc1nn2c(-c3cc(CO)on3)nncc2c1C(C)(C)CO | -31 | -39 | -44 | -45 | 21 | 8 |  |  |  |  |  |  | 
3 | Cc1cc(-c2nncc3c(C(C)(C)CO)c(OCc4ncnn4C)nn23)no1 | -23 | -32 | -40 | -41 | 9.4 | 21 |  |  |  |  |  |  | 
4 | Cn1ncnc1COc1nn2c(-c3cc(CO)on3)nncc2c1C(C)(C)C | -1 | -15 | -52 | -11 | 1.1 | 12 |  |  |  |  |  |  | 
5 | Cc1cc(-c2nnc(O)c3c(C(C)(C)CO)c(OCc4ncnn4C)nn23)no1 |  |  |  |  | > 666 |  |  |  |  |  |  |  | 
6 | Cc1cc(-c2nncc3c(C(C)(C)C)c(OCc4ncnn4C)nn23)no1 | 6 | -9 | -55 | -16 | 1.4 | > 95 | 30 | 27 | 30 | 39 | < 2 | 18 | 33
7 | Cn1ncnc1COc1nn2c(-c3cc(CO)on3)nnc(O)c2c1C(C)(C)C |  |  |  |  | 370 |  |  |  |  |  |  |  | 
